# From patent publication EP0545103A1, “Insecticidal, acaricidal and molluscicidal 1-(substituted) thioalkylpyrroles” (priority 1991, dated 1993)
# Columns and labels:
# Assay type in all cases: in vivo
# [1] = tested on: Heliothis virescens, egg, tobacco budworm; experiment: Tobacco budworm egg test, dipped cotton leaf and eggs; parameters: key: 0: no effect; 10-25% kill; 26-35% kill; 36-45% kill; 46-55% kill; 56-65% kill; 66-75% kill; 76-85% kill; 86-99% kill; 9: 100% kill; conditions: mortality rating after 3 days
# Protocol: (§1) Test solutions are prepared by dissolving the test compound in a 35% acetone in water mixture to give a concentration of 10,000 ppm. Subsequent dilutions are made with water as needed.
# Heliothis virescens, egg, tobacco budworm
# A young cotton leaf about 6-7cm in length is dipped in an agitated test suspension for about 3 seconds. Eggs are collected on a cheesecloth and the cloth is cut into 10-20mm squares, each containing approximately 50-100 eggs which are 6-30 hours old. The egg-containing cheesecloth square is similarly dipped in a test suspension and placed on a treated cotton leaf. The combination is dried in a hood and then placed in an 8 ounce Dixie® cup #2168-ST (240ml volume, 6cm tall, 9.5cm top diameter, 8.0cm bottom diameter) into which a 5cm length of damp dental wick has been placed. The cup is covered with a clear plastic lid and held for 3 days, after which mortality counts are made.
# (§2) All of the above tests are rated according to the rating scale shown below.
# [2] = tested on: Spodoptera eridania, 3rd instar larvae, southern armyworm; experiment: Southern armyworm 3rd instar test, dipped limabean leaf; conditions: for ARMYWORM Day 3: rating at 3 days; for ARMYWORM Day 5: rating at 5 days
# Protocol: as §1
# Spodoptera eridania, 3rd instar larvae, southern armyworm
# A Sieva limabean leaf expanded to 7-8 cm in length is dipped in the test solution with agitation for 3 seconds and allowed to dry in a hood. The leaf is then placed in a 100 x 10 mm petri dish containing a damp filterpaper on the bottom and ten 3rd instar caterpillars. At 3 and 5 days, observations are made of mortality, reduced feeding, or any interference with normal molting.
# as §2
# [3] = tested on: Diabrotic undecimpunctata howardi, 3rd instar southern corn rootworm; experiment: Southern corn rootworm soil test; parameters: key: 0: no effect; 10-25% kill; 26-35% kill; 36-45% kill; 46-55% kill; 56-65% kill; 66-75% kill; 76-85% kill; 86-99% kill; 9: 100% kill; conditions: mortality rating after 6 days
# Protocol: Diabrotic undecimpunctata howardi, 3rd instar southern corn rootworm
# One cc of fine talc is placed in a 30 mL wide-mouth screw-top glass jar. One mL of the appropriate acetone test solution is pipetted onto the talc so as to provide 1.25 and 0.25 mg of active ingredient per jar. The jars are set under a gentle air flow until the acetone is evaporated. The dried talc is loosened, 1 cc of millet seed is added to serve as food for the insects and 25 mL of moist soil is added to each jar. The jar is capped and the contents thoroughly mixed on a Vortex Mixer. Following this, ten 3rd instar rootworms are added to each jar and the jars are loosely capped to allow air exchange for the larvae. The treatments are held for 6 days when mortality counts are made. Missing larvae are presumed dead, since they decompose rapidly and can not be found. The concentrations used in this test correspond approximately to 50 and 10 kg/ha, respectively.
# as §2
# [4] = tested on: Tetranychus urticae (OP-resistant strain), 2-spotted spider mite; experiment: 2-spotted spider mite test, dipped infested limabean plants; parameters: key: 0: no effect; 10-25% kill; 26-35% kill; 36-45% kill; 46-55% kill; 56-65% kill; 66-75% kill; 76-85% kill; 86-99% kill; 9: 100% kill
# Protocol: as §1
# Tetranychus urticae (OP-resistant strain), 2-spotted spider mite
# Sieva limabean plants with primary leaves expanded to 7-8 cm are selected and cut back to one plant per pot. A small piece is cut from an infested leaf taken from the main colony and placed on each leaf of the test plants. This is done about 2 hours before treatment to allow the mites to move over to the test plant and to lay eggs. The size of the cut, infested leaf is varied to obtain about 100 mites per leaf. At the time of test treatment, the piece of leaf used to transfer the mites is removed and discarded. The newly mite-infested plants are dipped in the test solution for 3 seconds with agitation and set in the hood to dry. After 2 days one leaf is removed and mortality counts are made. After 5 days, another leaf is removed and observations are made of mortality of the eggs and/or newly emerged nymphs.
# as §2
# [5] = tested on: Aphis fabae, mixed instar, bean aphid; experiment: Bean aphid spray test on nasturtium; parameters: key: 0: no effect; 10-25% kill; 26-35% kill; 36-45% kill; 46-55% kill; 56-65% kill; 66-75% kill; 76-85% kill; 86-99% kill; 9: 100% kill; conditions: 100 ppm
# Protocol: as §1
# Aphis fabae, mixed instar, bean aphid
# Pots containing single nasturtium plants (Tropaeolum sp.) about 5 cm tall are infested with about 100-200 aphids one day prior to treatment. Each pot is sprayed with the test solution for 2 revolutions of a 4 rpm turntable in a hood, using a #154 DeVilbiss atomizer. The spray tip is held about 15 cm from the plant and the spray directed so as to give complete coverage of the plants and the aphids. The sprayed pots are set on their sides on white enamel trays and mortality estimates are made after 2 days.
# as §2
# [6] = tested on: Empoasca abrupta, adult, western potato leafhopper; experiment: Western potato leafhopper contact test, dipped limabean leaf; conditions: mortality rating after 2 days
# Protocol: as §1
# Empoasca abrupta, adult, western potato leafhopper
# A Sieva limabean leaf about 5 cm long is dipped in the test solution for 3 seconds with agitation and placed in a hood to dry. The treated leaf is placed in a 100 x 10 mm petri dish containing a moist filter paper and about 10 adult leafhoppers are added. After 2 days, mortality counts are made.
# as §2
# [7] = tested on: Empoasca abrupta, adult, western potato leafhopper; experiment: Western potato leafhopper systemic uptake test; parameters: key: 0: no effect; 10-25% kill; 26-35% kill; 36-45% kill; 46-55% kill; 56-65% kill; 66-75% kill; 76-85% kill; 86-99% kill; 9: 100% kill; conditions: 100 ppm
# Protocol: Empoasca abrupta, adult, western potato leafhopper Systemic Uptake
# An emulsion containing 0.1 gm of the test material, 0.2 gm of Emulphor EL-620® emulsifier, 10 mL of acetone and 90 mL of water is prepared and diluted 10-fold with water to give a 100 ppm emulsion. Subsequent 10-fold dilutions are made with water as needed. Sieva limabean plants, with the primary leaves expanded to a length of 7-8 cm, are cut off at least 3 cm above the soil level to avoid contamination with soil bacteria which will cause decay of the stem during the test. The cut stem is placed in the test emulsion and wrapped with a bit of cotton to hold the stem off the bottom of the bottle and to limit evaporation. The treated stem is maintained for 3 days at 27°C to allow the test compound to be taken up into the plant. Following this, one leaf is removed from the plant and placed in a 100 x 10 mm petri dish containing a moist filter paper and about 10 adult leafhoppers as described above. Mortality counts are made after 2 days.
# as §2
# [8] = tested on: Heliothis virescens, 3rd instar tobacco budworm; experiment: Tobacco budworm 3rd instar test, dipped cotton cotyledons; parameters: key: 0: no effect; 10-25% kill; 26-35% kill; 36-45% kill; 46-55% kill; 56-65% kill; 66-75% kill; 76-85% kill; 86-99% kill; 9: 100% kill; conditions: mortality rating after 3 days
# Protocol: as §1
# Heliothis virescens, 3rd instar tobacco budworm
# Cotton cotyledons are dipped in the test solution and allowed to dry in a hood. When dry, each is cut into quarters and ten sections are placed individually in 30 mL plastic medicine cups containing a 5-7mm long piece of damp dental wick. One 3rd instar caterpillar is added to each cup and the cup is sealed with MYLAR® film. Treatments are maintained for 3 days before a mortality count and observation of reduction in feeding damage are made.
# as §2
# [9] = tested on: Spodoptera eridania, 3rd instar larvae, southern armyworm; experiment: Southern armyworm 7-day residual test; conditions: R designates Residual: 7-day residual foliage, concentration not given; for ARMYWORM Day 3 R: rating at 3 days; for ARMYWORM Day 5 R: rating at 5 days
# Protocol: as §1
# Spodoptera eridania, 3rd instar larvae, southern armyworm, 7-day residual
# The limabean leaves treated in the above test are maintained under high intensity lamps in the greenhouse for 7 days. These lamps duplicate the effects of a bright sunny day in June in New Jersey and are kept on for 14 hour day length. After 7 days, the foliage is sampled and assayed as in the above-said test.
# as §2
# [10] = tested on: Spodoptera eridania, 3rd instar larvae, southern armyworm; experiment: Southern armyworm systemic uptake (stem systemic) test; parameters: key: 0: no effect; 10-25% kill; 26-35% kill; 36-45% kill; 46-55% kill; 56-65% kill; 66-75% kill; 76-85% kill; 86-99% kill; 9: 100% kill; conditions: cut stem in emulsion 3 days
# Source text: Spodoptera eridania, systemic uptake, 3rd instar larvae, southern armyworm
# Subsequent 10-fold dilutions are made with water as needed. Sieva limabean plants, with the primary leaves expanded to a length of 7-8 cm, are cut off at least 3 cm above the soil level to avoid contamination with soil bacteria which will cause decay of the stem during the test. The cut stem is placed in the test emulsion and wrapped with a bit of cotton to hold the stem off the bottom of the bottle and to limit evaporation. The treated stem is thus maintained for 3 days at 27° C to allow the test compound to be taken up into the plant. Following this, one leaf is removed from the plant and placed in a 100 x 10 mm petri dish with 10 southern armyworms as described above. Mortality counts and observations of feeding damage are made 3 and 5 days later.
# as §2
# [11] = 10 ppm, mortality rating after 2 days
# [12] = spray, mortality rating after 2 days
# [13] = cut stem in emulsion 3 days, mortality rating after 2 days
Structure (SMILES),TOBACCO BUDWORM Egg ([1]; 1000 ppm),ARMYWORM Day 3 ([2]; 10 ppm),ARMYWORM Day 5 ([2]; 10 ppm),ARMYWORM Day 3 ([2]; 100 ppm),ARMYWORM Day 5 ([2]; 100 ppm),ARMYWORM Day 3 ([2]; 1000 ppm),ARMYWORM Day 5 ([2]; 1000 ppm),"OP-RESISTANT MITES Adult [4, 11]","OP-RESISTANT MITES Egg ([4]; 10 ppm, rating after 5 days)","OP-RESISTANT MITES Egg ([4]; 100 ppm, rating after 5 days)","OP-RESISTANT MITES Egg ([4]; 300 ppm, rating after 5 days)","OP-RESISTANT MITES Nymph ([4]; 300 ppm, rating after 5 days)","APHIDS [5, 12]","LEAFHOPPER Systemic [7, 13]",ARMYWORM Day 3 R [9],ARMYWORM Day 5 R [9],ARMYWORM Stem Sys [10],SOUTHERN CORN ROOTWORM ([3]; 50 (ppm as headed)),other results
CCOC(=S)SCn1c(-c2ccc(Cl)cc2)c(C#N)c(Cl)c1C(F)(F)F [Example 23],0,9 (100% kill),9 (100% kill),9 (100% kill),9 (100% kill),9 (100% kill),9 (100% kill),9 (100% kill),9 (100% kill),9 (100% kill),0,9 (100% kill),5 (56-65% kill),0,,,,,"SOUTHERN CORN ROOTWORM ([3]; 1 (ppm as headed)): 0; OP-RESISTANT MITES Adult ([4]; 100 ppm, mortality rating after 2 days): 9 (100% kill); OP-RESISTANT MITES Adult ([4]; 300 ppm, mortality rating after 2 days): 9 (100% kill); LEAFHOPPER Contact ([6]; 10 ppm): 9 (100% kill); LEAFHOPPER Contact ([6]; 100 ppm): 9 (100% kill)"
N#Cc1c(Cl)c(C(F)(F)F)n(CSC2=NCCCN2)c1-c1ccc(Cl)cc1 [Example 5],0,,,,,,,0,0,9 (100% kill),0,0,0,8 (86-99% kill),9 (100% kill),9 (100% kill),8 (86-99% kill),0,"TOBACCO BUDWORM 3rd Instar ([8]; 10 ppm): 0; TOBACCO BUDWORM 3rd Instar ([8]; 100 ppm): 9 (100% kill); TOBACCO BUDWORM 3rd Instar ([8]; 1000 ppm): 9 (100% kill); OP-RESISTANT MITES Nymph ([4]; 10 ppm, rating after 5 days): 0"
N#Cc1c(Br)c(C(F)(F)F)n(CSc2ncc[nH]2)c1-c1ccc(Cl)cc1 [Example 1],0,9 (100% kill),9 (100% kill),9 (100% kill),9 (100% kill),9 (100% kill),9 (100% kill),,,,,,,,9 (100% kill),9 (100% kill),0,0,"TOBACCO BUDWORM Egg ([1]; 100 ppm): 0; OP-RESISTANT MITES Adult ([4]; 300 ppm, adult mites, rating scale 0-9): 0; OP-RESISTANT MITES Egg ([4]; 300 ppm, mite eggs, rating scale 0-9): 0; OP-RESISTANT MITES Nymph ([4]; 300 ppm, mite nymphs, rating scale 0-9): 0; APHIDS ([5]; rating scale 0-9): 0; LEAFHOPPER Systemic ([7]; systemic uptake, rating scale 0-9): 0"
